From patent publication US20150258107A1, “METHODS AND COMPOSITIONS FOR TREATING DEPRESSION” (DemeRx, Inc., priority 2014, published 2015)

Key:
[1] = system: opioid-dependent participants; experiment: QT interval in opioid-dependent participants; type: in vivo, human; details: 60, 120, 180 mg, first 24 hours post administration
Experimental: Patients' QT intervals were evaluated at regular time points throughout the study.

[2] = system: opioid-dependent participants; experiment: Treatment emergent adverse events in opioid-dependent participants; type: in vivo, human
Experimental: The efficacy of noribogaine in humans was evaluated in opioid-dependent participants in a randomized, placebo-controlled, double-blind trial. […] See U.S. application Ser. No. 14/214,157, filed Mar. 14, 2014 and Ser. No. 14/346,655, filed Mar. 21, 2014, which are incorporated herein by reference in their entireties.
Three cohorts of nine (9) subjects (6 administered noribogaine and 3 administered placebo in each cohort) were evaluated for tolerability, pharmacokinetics, and efficacy. Cohort 1 received a single dose of 60 mg noribogaine or placebo. Cohort 2 received a single dose of 120 mg noribogaine or placebo. Cohort 3 received a single dose of 180 mg noribogaine or placebo. […] Headaches were frequent in the placebo and 60 mg noribogaine treatment groups, but were attenuated in the 120 mg and 180 mg dose groups.

[3] = system: healthy, drug-free male volunteers; experiment: Cold pressor test in healthy volunteers; type: in vivo, human; details: 3, 10, 30, 60 mg single oral dose; hand immersion duration and VAS pain scores
Experimental: Analgesic effect was assessed based on duration of hand immersion in ice water and on visual analog scale (VAS) pain scores upon hand removal from the water bath.
Safety and tolerability of noribogaine were tested in the group of volunteers from Example 9. […] Safety evaluations included clinical monitoring, recording of adverse events (AEs), safety laboratory tests, vital signs, ECG telemetry from −2 h to 6 h after dosing, and 12-lead electrocardiograms (ECGs) up to 216 hours post-dosing.

[4] = Human pharmacokinetic study, single oral tablet, fasting healthy volunteers (serum levels); type: in vivo; details: fasting; for Cmax: human, serum, oral
Experimental: In double blind studies, fasting healthy volunteers (6 per cohort) were treated once orally with a tablet of noribogaine HCl. In escalating cohorts, the volunteers received 3 mg, 10 mg, 30 mg or 60 mg noribogaine.

[5] = Pharmacokinetics of noribogaine in healthy male volunteers (plasma and urine, LCMSMS); details: for CL/F / AUC0-216 / AUC0-∞ / Cmax / Tmax / T½: mean (SD); for AUC0-216 / AUC0-∞ / Cmax / Tmax / T½: plasma
[6] = system: healthy, drug-free male volunteers; experiment: Pupillometry (pupillary miosis) in healthy volunteers; type: in vivo, human; details: 3, 10, 30, 60 mg single oral dose
Experimental: Pulse oximetry and capnography data were collected continuously using a GE Carescape B650 monitoring system from 2 hours prior to dosing and until six hours after dosing, and thereafter at 12, 24, 48 and 72 hours post-dosing. […] Pupillary miosis was assessed by pupillometry.
Summary statistics (means, standard deviations, and coefficients of variation) were determined for each dose group for safety laboratory test data, ECG and pharmacokinetic parameters, and pharmacodynamic variables. Categorical variables were analysed using counts and percentages. Dose-proportionality of AUC and Cmax was assessed using linear regression. The effect of dose on pharmacodynamic parameter values over time was assessed using two-factor analysis of variance (ANOVA). Pairwise comparisons (with Tukey-Kramer adjustment) between each dose group to the placebo were conducted at each time point using the least squares estimates obtained from the ANOVA, using SAS Proc Mixed (SAS ver 6.0).

CC[C@H]1CC2C[C@H]3c4[nH]c5ccc(O)cc5c4CCN(C2)C13 [noribogaine]
QT interval prolongation (ΔQTc1) [1]: dose-dependent increase in QT interval prolongation
TEAE: Catheter Site Infection ([2]; 60 mg (N = 6)): 0
TEAE: Catheter Site Pain ([2]; 60 mg (N = 6)): 0
TEAE: Catheter Site Related Reaction ([2]; 60 mg (N = 6)): 0
TEAE: Cellulitis ([2]; 60 mg (N = 6)): 0
TEAE: Diarrhoea ([2]; 60 mg (N = 6)): 0
TEAE: Dry Mouth ([2]; 60 mg (N = 6)): 0
TEAE: Ear and Labyrinth Disorders ([2]; 60 mg (N = 6)): 0
TEAE: Epistaxis ([2]; 60 mg (N = 6)): 0
TEAE: Euphoric Mood ([2]; 60 mg (N = 6)): 0
TEAE: General Disorders and Administration Site Conditions ([2]; 60 mg (N = 6)): 0
TEAE: Hyperaesthesia ([2]; 60 mg (N = 6)): 0
TEAE: Infections and Infestations ([2]; 60 mg (N = 6)): 0
TEAE: Limb Discomfort ([2]; 60 mg (N = 6)): 0
TEAE: Malaise ([2]; 60 mg (N = 6)): 0
TEAE: Nausea ([2]; 60 mg (N = 6)): 0
TEAE: Oropharyngeal Pain ([2]; 60 mg (N = 6)): 0
TEAE: Pseudoparalysis ([2]; 60 mg (N = 6)): 0
TEAE: Respiratory, Thoracic and Mediastinal Disorders ([2]; 60 mg (N = 6)): 0
TEAE: Rhinorrhoea ([2]; 60 mg (N = 6)): 0
TEAE: Skin Discomfort ([2]; 60 mg (N = 6)): 0
TEAE: Skin Irritation ([2]; 60 mg (N = 6)): 0
TEAE: Skin and Subcutaneous Tissue Disorders ([2]; 60 mg (N = 6)): 0
TEAE: Somnoience ([2]; 60 mg (N = 6)): 0
TEAE: Tinnitus ([2]; 60 mg (N = 6)): 0
TEAE: Tremor ([2]; 60 mg (N = 6)): 0
TEAE: Urinary Tract Infection ([2]; 60 mg (N = 6)): 0
TEAE: Vomiting ([2]; 60 mg (N = 6)): 0
TEAE: Back Pain ([2]; 120 mg (N = 6)): 0
TEAE: Catheter Site Infection ([2]; 120 mg (N = 6)): 0
TEAE: Catheter Site Related Reaction ([2]; 120 mg (N = 6)): 0
TEAE: Depressed Mood ([2]; 120 mg (N = 6)): 0
TEAE: Dry Eye ([2]; 120 mg (N = 6)): 0
TEAE: Dyspepsia ([2]; 120 mg (N = 6)): 0
TEAE: Euphoric Mood ([2]; 120 mg (N = 6)): 0
TEAE: Limb Discomfort ([2]; 120 mg (N = 6)): 0
TEAE: Malaise ([2]; 120 mg (N = 6)): 0
TEAE: Musculoskeletal and Connective Tissue Disorders ([2]; 120 mg (N = 6)): 0
TEAE: Psychiatric Disorders ([2]; 120 mg (N = 6)): 0
TEAE: Somnoience ([2]; 120 mg (N = 6)): 0
TEAE: Urinary Tract Infection ([2]; 120 mg (N = 6)): 0
TEAE: Catheter Site Infection ([2]; 180 mg (N = 6)): 0
TEAE: Catheter Site Pain ([2]; 180 mg (N = 6)): 0
TEAE: Depressed Mood ([2]; 180 mg (N = 6)): 0
TEAE: Diarrhoea ([2]; 180 mg (N = 6)): 0
TEAE: Dry Eye ([2]; 180 mg (N = 6)): 0
TEAE: Dyspepsia ([2]; 180 mg (N = 6)): 0
TEAE: Ear and Labyrinth Disorders ([2]; 180 mg (N = 6)): 0
TEAE: Epistaxis ([2]; 180 mg (N = 6)): 0
TEAE: Euphoric Mood ([2]; 180 mg (N = 6)): 0
TEAE: Hyperaesthesia ([2]; 180 mg (N = 6)): 0
TEAE: Malaise ([2]; 180 mg (N = 6)): 0
TEAE: Pseudoparalysis ([2]; 180 mg (N = 6)): 0
TEAE: Psychiatric Disorders ([2]; 180 mg (N = 6)): 0
TEAE: Respiratory, Thoracic and Mediastinal Disorders ([2]; 180 mg (N = 6)): 0
TEAE: Rhinorrhoea ([2]; 180 mg (N = 6)): 0
TEAE: Skin Discomfort ([2]; 180 mg (N = 6)): 0
TEAE: Skin Irritation ([2]; 180 mg (N = 6)): 0
TEAE: Skin and Subcutaneous Tissue Disorders ([2]; 180 mg (N = 6)): 0
TEAE: Somnoience ([2]; 180 mg (N = 6)): 0
TEAE: Tinnitus ([2]; 180 mg (N = 6)): 0
TEAE: Tremor ([2]; 180 mg (N = 6)): 0
Adverse effects incl. hallucinatory effects ([2]; single dose 60, 120 or 180 mg): Few adverse effects of noribogaine were observed in any of the participants, including no hallucinatory effects
Analgesic effect in the cold pressor test [3]: no analgesic effect
Cmax ([4]; single dose of 3 mg): 5.2 ng/mL
Cmax ([4]; single dose of 10 mg): 14.5 ng/mL
Cmax ([4]; single dose of 30 mg): 55.9 ng/mL
Cmax ([4]; single dose of 60 mg): 116 ng/mL
mean AUC/24 hr ([4]; single dose of 3 mg): 3.1 ng/mL
mean AUC/24 hr ([4]; single dose of 10 mg): 10.6 ng/mL
mean AUC/24 ([4]; single dose of 30 mg): 29.2 ng/mL
mean AUC/24 ([4]; single dose of 60 mg): 61 ng/mL
CL/F ([5]; 3 mg (n = 6)): 41.4 (7.0) L/h
AUC0-216 ([5]; 3 mg (n = 6)): 72.2 (13.2) ng · hr/ml
AUC0-∞ ([5]; 3 mg (n = 6)): 74.2 (13.1) ng · hr/ml
Cmax ([5]; 3 mg (n = 6)): 5.2 (1.4) ng/ml
Tmax ([5]; 3 mg (n = 6)): 1.9 (0.6) hr
T½ ([5]; 3 mg (n = 6)): 40.9 (8.7) hr
CL/F ([5]; 10 mg (n = 6)): 42.3 (12.0) L/h
AUC0-216 ([5]; 10 mg (n = 6)): 251.4 (78.5) ng · hr/ml
AUC0-∞ ([5]; 10 mg (n = 6)): 254.5 (78.9) ng · hr/ml
Cmax ([5]; 10 mg (n = 6)): 14.5 (2.1) ng/ml
Tmax ([5]; 10 mg (n = 6)): 2.9 (1.8) hr
T½ ([5]; 10 mg (n = 6)): 49.2 (11.5) hr
CL/F ([5]; 30 mg (n = 6)): 46.9 (16.4) L/h
AUC0-216 ([5]; 30 mg (n = 6)): 677.6 (221.1) ng · hr/ml
AUC0-∞ ([5]; 30 mg (n = 6)): 700.4 (223.3) ng · hr/ml
Cmax ([5]; 30 mg (n = 6)): 55.9 (14.8) ng/ml
Tmax ([5]; 30 mg (n = 6)): 1.8 (0.6) hr
T½ ([5]; 30 mg (n = 6)): 27.6 (7.0)) hr
CL/F ([5]; 60 mg (n = 6)): 34.0 (11.4) L/h
AUC0-216 ([5]; 60 mg (n = 6)): 1935.4 (725.4) ng · hr/ml
AUC0-∞ ([5]; 60 mg (n = 6)): 1962.2 (726.5) ng · hr/ml
Cmax ([5]; 60 mg (n = 6)): 116.0 (22.5) ng/ml
Tmax ([5]; 60 mg (n = 6)): 2.4 (0.6) hr
T½ ([5]; 60 mg (n = 6)): 29.1 (9.3) hr
Dose proportionality of Cmax and AUC ([5]; 3-60 mg): Both Cmax and AUC increased linearly with dose
Mean half-life estimates ([5]; across dose groups): 28 to 50 h
Volume of distribution ([5]; across dose groups): 1417 to 3086 L
Time of peak concentrations after oral dosing ([5]; across dose groups 3-60 mg): 2 to 3 h
Pupillary constriction [6]: no evidence of pupillary constriction
